Assay results from patent US8648086B2, “5,6-bicyclic heteroaryl-containing urea compounds as kinase inhibitors” (Ascepion Pharmaceuticals, Inc., priority 2009, dated 2014).

What was measured:
[1] = target: T1, c-Met (Homo sapiens, UniProt P08581); assay: c-Met cell-based assay (phospho-c-Met ELISA, A549 cells); conditions: compound at 100 nM
T1 construct: endogenous in cells; host or cells: A549 cells
Method: A procedure for standard cell-based assay for c-Met kinase activity can be used to test compounds of this invention for their inhibitory effect on this kinase and to identify c-Met antagonists.
Specifically, a compound to be tested was first dissolved in DMSO to a concentration of 10 mM and stored at −20° C. The activity of c-Met in cells depends on the phosphorylation level at its intracellular domain induced by its ligand, Hepatocyte growth factor (HGF). In order to induce the cells to produce phosphate c-Met, paracrine HGF-dependent NSCLC (None Small Cell Lung Cancer) A549 cells were grown in DMEM with 10% FBS.
To screen compounds of this invention for their inhibitory effect on c-Met kinase, the ELISA kit (R&D Systems) was used. One day before screening procedure, A549 cells were grown in DMEM without the presence of serum. On the day of screening procedure, various concentrations of compounds (from 0.5 nM to 500 nM) were added into the culture medium. Two hours later, 20% of FBS (Fetal Bovine Serum) was added into the medium to stimulate the expression of phosphor-c-Met. After 20 minutes, cell lysate from approximately 5×10^5 A549 cells were reacted with anti-phosphor-c-Met or anti total c-Met antibody in 96 well plates. In the presence of detection antibody, the phosphor-c-Met or total c-Met can be detected with Streptavidin-HRP (R&D Systems) followed by chemiluminescence detection.

[2] = target: T2, VEGFR2 (Homo sapiens, UniProt P35968); assay: VEGFR2 cell-based assay (phospho-VEGFR2 ELISA, transfected CHO cells); conditions: compound at 100 nM, read-out: % VEGFR2 kinase activity remains
T2 construct: expressed in transfected cells; host or cells: CHO cells, pcDNA3.1 plasmid
T2 sequence (P35968 20-1356, species assumed): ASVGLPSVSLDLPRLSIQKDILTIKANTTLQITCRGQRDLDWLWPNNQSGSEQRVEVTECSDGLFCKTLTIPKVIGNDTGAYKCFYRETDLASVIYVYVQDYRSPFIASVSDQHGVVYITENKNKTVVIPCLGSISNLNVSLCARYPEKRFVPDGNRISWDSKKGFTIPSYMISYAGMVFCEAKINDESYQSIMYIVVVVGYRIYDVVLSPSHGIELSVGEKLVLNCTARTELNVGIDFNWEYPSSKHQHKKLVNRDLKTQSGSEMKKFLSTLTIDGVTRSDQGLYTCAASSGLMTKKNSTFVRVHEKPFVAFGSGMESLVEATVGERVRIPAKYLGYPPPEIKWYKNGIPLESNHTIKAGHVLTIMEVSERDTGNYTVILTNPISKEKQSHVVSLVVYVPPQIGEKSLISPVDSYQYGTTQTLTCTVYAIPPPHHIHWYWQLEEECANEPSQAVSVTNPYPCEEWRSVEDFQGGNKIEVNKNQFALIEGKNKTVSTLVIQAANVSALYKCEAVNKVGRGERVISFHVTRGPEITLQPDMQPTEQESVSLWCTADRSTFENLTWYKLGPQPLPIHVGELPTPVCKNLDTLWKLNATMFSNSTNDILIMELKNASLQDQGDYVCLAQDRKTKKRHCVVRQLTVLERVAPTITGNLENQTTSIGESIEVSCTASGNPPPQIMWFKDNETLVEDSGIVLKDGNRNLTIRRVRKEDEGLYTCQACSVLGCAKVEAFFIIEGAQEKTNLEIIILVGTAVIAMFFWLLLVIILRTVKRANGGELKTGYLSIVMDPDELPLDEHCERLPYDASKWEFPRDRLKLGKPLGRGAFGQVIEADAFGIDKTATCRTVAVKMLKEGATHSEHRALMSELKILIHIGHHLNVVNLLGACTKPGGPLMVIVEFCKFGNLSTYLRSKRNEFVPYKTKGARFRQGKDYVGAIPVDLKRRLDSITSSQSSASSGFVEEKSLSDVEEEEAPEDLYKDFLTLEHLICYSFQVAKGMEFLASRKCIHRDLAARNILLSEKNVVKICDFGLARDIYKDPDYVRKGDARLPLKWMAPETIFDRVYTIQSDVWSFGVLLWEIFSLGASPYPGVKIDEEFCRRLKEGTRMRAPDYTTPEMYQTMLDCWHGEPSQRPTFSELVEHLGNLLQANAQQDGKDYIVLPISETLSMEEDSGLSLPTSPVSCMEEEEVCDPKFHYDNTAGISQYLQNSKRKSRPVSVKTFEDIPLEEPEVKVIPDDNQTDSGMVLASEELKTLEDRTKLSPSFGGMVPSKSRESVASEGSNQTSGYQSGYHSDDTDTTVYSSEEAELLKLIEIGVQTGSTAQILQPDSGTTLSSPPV
Method: A standard cell-based assay for VEGFR2 kinase activity can be used to test compounds of this invention and to identify VEGFR2 antagonists.
Specifically, a compound to be tested was first dissolved in DMSO to a concentration of 10 mM and stored at −20° C. The activity of VEGFR2 in cells depends on the phosphorylation level at its intracellular domain induced by the ligand. In order to express VEGFR2 in the cells, full length VEGFR2 sequence was cloned into PC-DNA3.1 vector, the plasmid was then transfected into CHO cells. After 48 hours, the expression of VEGFR2 in transfected CHO cells was confirmed by regular western blotting.
To screen the compounds of this invention, the ELISA kit (R&D Systems) was used. One day before the screening, CHO cells transfected with full length VEGFR2 plasmid were grown in DMEM medium without the presence of serum. On the day of screening, various concentrations of compounds (From 0.5 nM to 500 nM) were added into DMEM medium. Two hours later, 20% of FBS (Fetal Bovine Serum) was added into the medium to stimulate the production of phosphor-VEGFR2. Cell lysate from approximately 5×10^5 transfected CHO cells were reacted with anti-phosphor-VEGFR2 or anti-total VEGFR2 antibody in 96 well plates. In the presence of detection antibody, the phosphor-VEGFR2 or total VEGFR2 were detected with Streptavidin-HRP (R&D Systems) followed by chemiluminescence detection.

[3] = system: MDA-MB-231 human breast cancer cells; assay: In vivo anti-tumor efficacy, MDA-MB-231 xenograft; conditions: Breast cancer MDA-MB-231, nu/nu Balb/c mice, 100 mg/kg oral once per day, n = 2 × 3
Method: Female (nu/nu) Balb/c athymic mice at 4-6 weeks of age were injected subcutaneously (s.c.) with MDA-MB-231 human breast cancer cells, A549 human non-small cell lung cancer cells, U87-MG human glioblastoma cells, PC-3 human prostate cancer cells, HT-29 human colon cancer, BEL-7404 human hepatocellular carcinoma, or MKN-45 human gastric cancer cells (ATCC, 5×10^6 cells suspended in 100 μl DMEM medium). Treatment was initiated after the tumor mass grown from s.c. implanted tumor cells reached a median volume of 200-400 mm^3. Mice were randomized into groups with three in each group for small-sample efficacy tests such that the median tumor volume is nearly equal among all groups. For large-sample efficacy tests, mice were randomized into groups with thirteen or fourteen in each group. Each group was treated either with compounds (dissolved in 2:1 mixture of PEG400 and 0.01N HCl (v/v)) or without compounds (vehicle only, 2:1 mixture of PEG400 and 0.01N HCl (v/v)) once per day at dose 12.5, 25, 50 or 100 mg/kg by oral gavage. Tumor volumes were assessed at least twice weekly by caliper measurement from the start of treatment. Tumor volume was calculated using the formula ½×L×W^2 (L: length of tumor's long axis, W: length of tumor's short axis). Treatment was applied for at least two weeks or until the tumor volume reaches a size of ˜2500 mm^3 or greater. Mice were humanly sacrificed after the experiment.
The efficacy of compounds in reducing tumor growth was assessed by the index Tumor Growth Inhibition (TGI). TGI for a given treatment period was calculated using the group mean tumor volumes according to the formula: TGI=100×(VVehicle—group−VTreatment—group)÷VVehicle—group wherein VVehicle—group represents the mean tumor volume for the group treated with vehicle and VTreatment—group represents the mean tumor volume of the group treated with a compound.

[4] = target: T3, PDGFRβ (Homo sapiens, UniProt P09619); assay: PDGFRβ cell-based assay (phospho-PDGFRβ ELISA, transfected CHO cells); conditions: compound at 100 nM, read-out: % PDGFRβ kinase activity remains
T3 construct: expressed in transfected cells; host or cells: CHO cells, pcDNA3.1 plasmid
T3 sequence (P09619 33-1106, species assumed): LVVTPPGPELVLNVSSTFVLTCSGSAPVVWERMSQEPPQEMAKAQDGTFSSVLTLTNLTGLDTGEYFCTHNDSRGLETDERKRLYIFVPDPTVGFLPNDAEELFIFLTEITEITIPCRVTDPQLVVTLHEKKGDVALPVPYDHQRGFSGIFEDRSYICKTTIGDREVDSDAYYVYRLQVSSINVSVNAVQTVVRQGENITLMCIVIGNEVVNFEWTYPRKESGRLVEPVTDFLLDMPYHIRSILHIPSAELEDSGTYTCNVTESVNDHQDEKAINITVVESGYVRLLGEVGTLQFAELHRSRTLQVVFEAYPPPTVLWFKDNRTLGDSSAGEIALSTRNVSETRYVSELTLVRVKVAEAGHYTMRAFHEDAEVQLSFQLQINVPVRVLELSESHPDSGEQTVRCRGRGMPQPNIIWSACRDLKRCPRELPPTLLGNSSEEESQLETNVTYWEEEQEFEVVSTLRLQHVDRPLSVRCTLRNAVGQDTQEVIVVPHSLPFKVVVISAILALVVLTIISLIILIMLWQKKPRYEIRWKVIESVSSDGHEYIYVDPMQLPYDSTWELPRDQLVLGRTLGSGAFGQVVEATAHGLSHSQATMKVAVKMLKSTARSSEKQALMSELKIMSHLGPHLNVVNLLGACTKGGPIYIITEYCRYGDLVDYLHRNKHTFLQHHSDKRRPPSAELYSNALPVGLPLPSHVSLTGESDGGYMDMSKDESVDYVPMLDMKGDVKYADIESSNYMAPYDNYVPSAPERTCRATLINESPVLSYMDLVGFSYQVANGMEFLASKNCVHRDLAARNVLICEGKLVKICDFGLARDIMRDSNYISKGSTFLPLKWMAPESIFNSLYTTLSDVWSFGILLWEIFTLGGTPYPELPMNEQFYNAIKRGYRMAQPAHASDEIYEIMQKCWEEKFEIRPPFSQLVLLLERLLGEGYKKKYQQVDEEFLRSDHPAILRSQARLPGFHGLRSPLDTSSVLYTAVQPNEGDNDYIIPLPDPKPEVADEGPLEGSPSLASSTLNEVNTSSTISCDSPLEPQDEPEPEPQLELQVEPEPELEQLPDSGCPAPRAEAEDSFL
Method: A standard cell-based assay for PDGFRβ kinase activity can be used to test a compound of this invention and to identify PDGFRβ antagonists.
Specifically, a compound to be tested was first dissolved in DMSO to a concentration of 10 mM and stored at −20° C. The activity of PDGFRβ in cells depends on the phosphorylation level of its intracellular domain induced by the ligand. In order to express PDGFRβ in the cell, full length PDGFRβ sequence was cloned into PC-DNA3.1 vector. The plasmid was then transfected into CHO cells. After 48 hours following the transfection, the expression of PDGFRβ in transfected CHO cells was confirmed by regular western blotting.
To screen the compound of this invention, the ELISA kit (R&D Systems, Minneapolis, Minn., USA) was used. One day before the screening, CHO cells transfected with full length PDGFRβ plasmid were grown in DMEM medium without the presence of serum. On the day of screening, various concentrations of compounds (from 0.5 nM to 500 nM) were added into DMEM medium. Two hours later, 20% of FBS (Fetal Bovine Serum) was added into the medium to stimulate the expression of phosphor-PDGFRβ. Cell lysate from approximately 5×10^5 transfected CHO cells were reacted with anti-phosphor-PDGFRβ or anti-total PDGFRβ antibody in 96 well plates, in the presence of detection antibody, the phosphor-PDGFRβ or total PDGFRβ were detected with Streptavidin-HRP (R&D Systems), followed by chemiluminescent detection.

T1 sequence (P08581 25-1390): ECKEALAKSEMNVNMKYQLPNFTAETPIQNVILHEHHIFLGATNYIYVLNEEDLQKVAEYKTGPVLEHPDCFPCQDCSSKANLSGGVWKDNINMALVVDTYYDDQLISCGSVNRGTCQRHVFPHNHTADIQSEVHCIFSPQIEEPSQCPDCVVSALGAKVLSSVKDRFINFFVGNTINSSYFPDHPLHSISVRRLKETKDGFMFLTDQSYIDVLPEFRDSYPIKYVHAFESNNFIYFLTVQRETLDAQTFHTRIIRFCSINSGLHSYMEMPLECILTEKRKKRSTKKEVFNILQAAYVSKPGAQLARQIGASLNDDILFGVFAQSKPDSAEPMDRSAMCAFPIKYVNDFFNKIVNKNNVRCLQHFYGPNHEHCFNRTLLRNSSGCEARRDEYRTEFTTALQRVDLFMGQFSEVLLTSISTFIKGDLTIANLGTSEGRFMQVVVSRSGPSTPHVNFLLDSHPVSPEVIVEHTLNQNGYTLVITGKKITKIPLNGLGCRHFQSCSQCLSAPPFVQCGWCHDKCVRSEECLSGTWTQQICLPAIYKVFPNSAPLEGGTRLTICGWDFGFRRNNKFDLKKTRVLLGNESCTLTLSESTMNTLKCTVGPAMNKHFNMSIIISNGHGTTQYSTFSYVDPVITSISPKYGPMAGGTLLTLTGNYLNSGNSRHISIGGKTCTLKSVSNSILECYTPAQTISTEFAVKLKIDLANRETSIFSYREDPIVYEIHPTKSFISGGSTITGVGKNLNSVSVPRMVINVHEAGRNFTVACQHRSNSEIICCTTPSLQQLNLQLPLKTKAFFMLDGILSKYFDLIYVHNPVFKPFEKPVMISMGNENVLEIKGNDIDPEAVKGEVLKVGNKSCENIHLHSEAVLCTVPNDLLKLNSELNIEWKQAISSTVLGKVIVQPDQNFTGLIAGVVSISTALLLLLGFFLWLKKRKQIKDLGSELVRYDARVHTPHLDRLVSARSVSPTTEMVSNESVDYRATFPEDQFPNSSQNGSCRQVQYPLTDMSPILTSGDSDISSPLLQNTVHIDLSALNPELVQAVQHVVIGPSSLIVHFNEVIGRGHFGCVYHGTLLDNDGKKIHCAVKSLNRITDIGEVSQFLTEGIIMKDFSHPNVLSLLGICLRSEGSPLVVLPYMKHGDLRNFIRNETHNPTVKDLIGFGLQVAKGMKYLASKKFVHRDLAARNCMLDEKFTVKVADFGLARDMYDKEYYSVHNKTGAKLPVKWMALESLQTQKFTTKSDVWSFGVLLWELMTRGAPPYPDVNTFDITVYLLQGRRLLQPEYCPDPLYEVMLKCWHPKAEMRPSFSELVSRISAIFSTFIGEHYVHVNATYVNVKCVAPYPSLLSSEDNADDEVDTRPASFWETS

SMILES	% c-Met kinase activity remains [1]	remaining activity at 0.1 µM [2] [%]	Tumor Growth Inhibition (TGI) [3]	remaining activity at 0.1 µM [4] [%]
COc1ccc(Cl)cc1NC(=O)Nc1cccc2c1CCN2Cc1ccnc2[nH]ccc12.Cl [Example 1, 1-(2-Methoxyl-5-chlorophenyl)-3-[1-(1H-pyrrolo[2,3-b]pyridin-4-ylmethyl)-2,3-dihydro-1H-indol-4-yl]urea hydrochloride]	A (the percentage of kinase activity remains is below 70%)	< 70	A (the TGI is greater or equal to 50%)	–
COc1ccc(OC)c(NC(=O)Nc2cccc3c2ccn3Cc2c[nH]c3ncccc23)c1.Cl [Example 32, 1-(2,5-Dimethoxyphenyl)-3-[1-(1H-pyrrolo[2,3-b]pyridin-3-ylmethyl)-1H-indol-4-yl]urea hydrochloride]	A (the percentage of kinase activity remains is below 70%)	< 70	–	≥ 70
Cl.O=C(Nc1cccc(Br)c1)Nc1cccc2c1ccn2Cc1c[nH]c2ncccc12 [Example 12, 1-(3-Bromophenyl)-3-[1-(1H-pyrrolo[2,3-b]pyridin-3-ylmethyl)-1H-indol-4-yl]urea hydrochloride]	A (the percentage of kinase activity remains is below 70%)	< 70	–	≥ 70
Cl.O=C(Nc1ccc(F)cc1)Nc1cccc2c1ccn2Cc1ccnc2[nH]ccc12 [Example 36, 1-(4-Fluorophenyl)-3-[1-(1H-pyrrolo[2,3-b]pyridin-4-ylmethyl)-1H-indol-4-yl]urea hydrochloride]	A (the percentage of kinase activity remains is below 70%)	< 70	–	≥ 70
Cl.O=C(Nc1cccc(F)c1)Nc1cccc2c1ccn2Cc1ccnc2[nH]ccc12 [Example 35, 1-(3-Fluorophenyl)-3-[1-(1H-pyrrolo[2,3-b]pyridin-4-ylmethyl)-1H-indol-4-yl]urea hydrochloride]	A (the percentage of kinase activity remains is below 70%)	< 70	–	≥ 70
Cl.O=C(Nc1ccc(OC(F)(F)F)cc1)Nc1cccc2c1ccn2Cc1c[nH]c2ncccc12 [Example 22, 1-(4-Trifluoromethoxyphenyl)-3-[1-(1H-pyrrolo[2,3-b]pyridin-3-ylmethyl)-1H-indol-4-yl]urea hydrochloride]	A (the percentage of kinase activity remains is below 70%)	≥ 70	–	≥ 70
Cl.O=C(Nc1ccc(Cl)cc1F)Nc1cccc2c1ccn2Cc1c[nH]c2ncccc12 [Example 28, 1-(2-Fluoro-4-chlorophenyl)-3-[1-(1H-pyrrolo[2,3-b]pyridin-3-ylmethyl)-1H-indol-4-yl]urea hydrochloride]	A (the percentage of kinase activity remains is below 70%)	< 70	–	≥ 70
Cl.O=C(Nc1cc(Br)ccc1F)Nc1cccc2c1ccn2Cc1c[nH]c2ncccc12 [Example 30, 1-(2-Fluoro-5-bromophenyl)-3-[1-(1H-pyrrolo[2,3-b]pyridin-3-ylmethyl)-1H-indol-4-yl]urea hydrochloride]	B (the percentage is greater or equal to 70%)	< 70	–	≥ 70
Cl.O=C(Nc1ccc(Br)cc1)Nc1cccc2c1ccn2Cc1c[nH]c2ncccc12 [Example 13, 1-(4-Bromophenyl)-3-[1-(1H-pyrrolo[2,3-b]pyridin-3-ylmethyl)-1H-indol-4-yl]urea hydrochloride]	A (the percentage of kinase activity remains is below 70%)	≥ 70	–	≥ 70
